Test results as given in US20210290644A1, “COMPOUNDS AND METHODS FOR TREATING FUNGAL INFECTIONS” (Amplyx Pharmaceuticals, Inc., priority 2018, published 2021).
In brackets after ≈: the same amount, converted by molar mass. Entries after “also recorded” stand apart in the source; their conditions may differ. Like-named read-outs stand apart in the source and are kept apart here.

Experiments:
[1] = Compound 1 Injection 20 mg/mL batch analysis and stability (appearance, HPLC assay, related substances, pH, particulate matter); type: physicochemical; conditions: 72-hour stability data at 20 mg/mL
Description: The HPLC method used in the stability studies for Compound 1 Injections, 20 mg/mL is a specific and stability-indicating method used for the determination of assay, related substances, content uniformity, identification, and absence of Compound 1 in Compound 1 Injection at 20 mg/mL. The method is a gradient reverse phase HPLC system to measure assay, purity, and related substances. The assay (% w/w) is determined by comparing the peak response of the sample to that of a standard. The same HPLC method used for purity and related substances is used to measure related substances. Related substances to Compound 1 drug substance are reported as area percent. The area of an impurity is divided by the total area of all sample-related peaks. Related substances are reported by retention time relative to the parent peak (RRT).
Compound 1 Injection, 20 mg/mL, was prepared as a non-buffered solution suitable for Phase 1 clinical studies containing Compound 1, sodium chloride, and pH adjustment using hydrochloric acid and/or sodium hydroxide to pH 7.5. […] Samples have been analyzed for appearance, assay, related substance, and pH. Compound 1 Injection, engineering batch #707 manufactured under GMP was placed on an ICH stability program at 5° C. and 25° C./60% RH. Samples have been analyzed for appearance, assay, related substance, particulate matter, and pH. […]

[2] = Study #2 Phase 1: pharmacokinetics after single IV and single/multiple oral doses of Compound 1, absolute oral bioavailability; conditions: Cohort 1A, Period A, 200 mg IV;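 further: phase 1 study design: one IV dose, then escalating single oral doses, fed versus fasted single oral dosing, and once-daily oral dosing over 14 days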
Description: In the single ascending dose (SAD) phase, subjects in Cohort 1a received a single IV dose in Period A and then rising single oral doses in Periods B to D. Subjects in Cohort 1b received a single oral dose under fed and fasted conditions in Periods E and F. Subjects in Cohorts 2 and 3 received once-daily oral doses for 14 days, as did subjects in Cohort 4 as part of an in vivo screen for drug-drug interaction (DDI) potential.
For SAD Cohorts 1a and 1b, urine samples for the determination of Compound 1A were collected through 48 hrs after dosing.
Forty-six (46) subjects were enrolled into the study, 8 in Cohort 1a, 10 in Cohort 1b, and 8 each in Cohorts 2 and 3.

[3] = in vivo
Description: This was a Phase 1, first-in-human, randomized, double-blind, placebo-controlled single ascending dose (SAD) and multiple ascending dose (MAD) escalation study of 120 healthy male and female subjects. The objectives of the study were to evaluate the safety, tolerability, and pharmacokinetics of single and multiple doses of Compound 1 administered by intravenous (IV) infusion.
(§1) In the single ascending dose (SAD) phase, Cohorts 1 to 6 and 11A to 11D received single doses. For Cohorts 11A to 11D, the infusion time varied from 0.5 to 3 hours to evaluate the relationship between C., and tolerability. In the multiple ascending dose (MAD) phase, Cohorts 7 to 10 received multiple doses over 14 days, and Cohort 12 examined the feasibility of a loading dose regimen.
Blood samples for the determination of Compound 1 and Compound 1A plasma concentrations were collected before and at appropriate times during all single- and multiple-dose administrations of Compound 1. For SAD Cohorts 1 to 6, urine samples for the determination of Compound 1A were collected through 48 hrs after dosing.
Eighty (80) subjects were enrolled into SAD Cohorts 1 to 6 and 11A to 11D. Within each cohort, six subjects were randomized to Compound 1 and two subjects to placebo. All 60 subjects randomized to Compound 1 completed dosing. Fifty-nine (59) subjects completed the study.
Forty (40) subjects were enrolled into MAD Cohorts 7 to 10 and Loading Dose Cohort 12. Within each cohort, six subjects were randomized to Compound 1 and two subjects to placebo.
The PK analysis population therefore consisted of 60 subjects in the SAD phase and 28 subjects in the MAD phase.

[4] = pH stability of Compound 1 in buffer solutions stored at 40° C.; type: physicochemical; conditions: buffer solutions pH 7-8, stored at 40° C., up to seven days
Description: The pH stability in buffer solutions were also evaluated for pH levels 7, 8, and 9 when stored at 40° C.

[5] = Compound 1 pH solubility at room temperature; type: physicochemical
[6] = Study #1 Phase 1: safety and tolerability (TEAEs) of IV Compound 1
Description: This was a Phase 1, first-in-human, randomized, double-blind, placebo-controlled single ascending dose (SAD) and multiple ascending dose (MAD) escalation study of 120 healthy male and female subjects.
as §1

[7] = Additional Phase 1 study of Compound 1: IV loading, IV maintenance, then oral through Day 42, safety; type: in vivo, human; conditions: 1000 mg IV 3-hour BID Day 1, 600 mg IV 3-hour QD Days 2-7, 800 mg orally QD Days 8-42
[8] = Binary excipient compatibility study of Compound 1; type: physicochemical; conditions: binary mixtures, after 3 weeks at either storage condition
Description: For each excipient screened, there were […] (5° C., room temperature, 40° C./75% RH, 50° C.) that could be pulled at 3 weeks or 4 weeks as shown in Table 85. For contingency, one vial was stored at each condition per excipient. At each time point, an appropriate active sample control vial from each condition was reconstituted and analyzed in addition to the compatibility samples.

[9] = test system: Candida (C. albicans, C. glabrata, or C. auris); test: PK-PD studies in immunocompromised mice infected with Candida (fungal burden, CFUs in the kidney); type: in vivo; conditions: dose fractionations
Description: In PK-PD studies, immunocompromised mice were infected with one of three spp. of Candida (C. albicans, C. glabrata, or C. auris) and groups of animals were dosed with Compound 1 at different dose fractionations. […] The stasis endpoint was defined as the quantity of Candida spp. in CFUs just prior to Compound 1 administration compared to CFUs at the endpoint of assessment (i.e., 24 hours for C. albicans; 96 hours for C. glabrata and C. auris).
In pharmacokinetic/pharmacodynamic (PK-PD) studies, immunocompromised mice were infected with one of three spp. of Candida (C. albicans, C. glabrata, or C. auris) and groups of animals were dosed with Compound 1 at different dose fractionations.

[10] = 100 mg sd oral treatment period
[11] = 300 mg sd oral treatment period
[12] = 500 mg sd oral treatment period
[13] = 1000 mg/0.5 hr IV single dose group
[14] = 1000 mg/1 hr IV single dose group
[15] = 1000 mg/2 hr IV single dose group
[16] = 1000 mg/3 hr IV single dose group
[17] = Cohort 12 loading dose regimen (1000 mg IV 2-hour twice on Day 1 + 600 mg IV 1-hr QD Days 2-7)

Nc1c(-c2cc(Cc3ccc(COc4ccccn4)cc3)no2)ccc[n+]1COP(=O)([O-])O [Compound 1]
degradation [1]: < 0.10% | number of TEAEs [10]: 2 TEAEs | subjects reporting TEAEs [10]: 33% | number of TEAEs (200 mg sd IV treatment period): 3 TEAEs | subjects reporting TEAEs (200 mg sd IV treatment period): 50% | number of TEAEs [11]: 6 TEAEs | subjects reporting TEAEs [11]: 50% | number of TEAEs (500 mg md oral group): 24 TEAEs | subjects reporting TEAEs (500 mg md oral group): 83% | number of TEAEs [12]: 1 TEAE | subjects reporting TEAEs [12]: 17% | safety and tolerability (1000 mg PO QD on Days 1 through 14): safe and well tolerated | number of TEAEs (1000 mg md oral group): 119 TEAEs | subjects reporting TEAEs (1000 mg md oral group): 100% | deaths or SAEs (Study #2): no deaths or SAEs reported | dose-limiting toxicities (DLTs) (Study #2): No DLTs were observed | maximum tolerated dose (MTD) (Study #2): not determined/reached | safety and tolerability (all doses in Study #2): safe and well tolerated | tolerability (multiple oral doses of 500 mg and 1000 mg once daily for 14 consecutive days): well tolerated by the majority of subjects | tolerability (single IV doses of 200 mg and single oral doses 100 mg to 500 mg): well tolerated | effect of dosing under fed conditions on tolerability (single-dose crossover food effect cohort, TEAEs related to Gastrointestinal and Nervous System Disorders): improve tolerability | time after IV infusion through which prodrug plasma concentrations were ≥LOQ [2]: ≤ 4 h | exposures to the prodrug relative to those of the active Compound 1A ([3]; both, human, iv): < 5% | time after start of infusion by which prodrug concentrations are <LOQ ([3]; both, human, iv): at most 8 hrs | accumulation of prodrug following multiple dosing [3]: essentially no accumulation | change in potency [4]: < 3% | solubility ([5]; 50 mM phosphate buffer, pH 7.5, aqueous buffer, Study B, pH 7.5 (50 mM phosphate buffer)): 141000 µg/mL (≈ 301 mM) | solubility ([5]; pH 1, simulated gastric fluid, Study A, pH 1): 3830 µg/mL (≈ 8.18 mM) | solubility ([5]; pH 3, aqueous buffer, Study A, pH 3): 111 µg/mL (≈ 0.237 mM) | solubility ([5]; pH 4, aqueous buffer, Study A, pH 4): 63 µg/mL (≈ 0.134 mM) | solubility ([5]; pH 5, aqueous buffer, Study A, pH 5): 125 µg/mL (≈ 0.267 mM) | solubility ([5]; pH 6, aqueous buffer, Study A, pH 6): 758 µg/mL (≈ 1.62 mM) | solubility ([5]; pH 6.5, aqueous buffer, Study B, pH 6.5): 4300 µg/mL (≈ 9.18 mM) | solubility ([5]; pH 7, aqueous buffer, Study A, pH 7, saturation not achieved): > 17600 µg/mL | solubility ([5]; pH 7, aqueous buffer, Study B, pH 7.0): 53700 µg/mL (≈ 115 mM) | solubility ([5]; pH 7.5, aqueous buffer, Study A, pH 7.5, saturation not achieved): > 28500 µg/mL | solubility ([5]; pH 8.5, aqueous buffer, Study A, pH 8.5, saturation not achieved): > 80000 µg/mL | solubility ([5]; phosphate buffer, pH 7, aqueous buffer, Study B, pH 7.0 (with phosphate buffer)): 20900 µg/mL (≈ 44.6 mM) | number of TEAEs [6, 13]: 21 TEAEs | subjects reporting TEAEs [6, 13]: 100% | number of TEAEs [6, 14]: 25 TEAEs | subjects reporting TEAEs [6, 14]: 100% | number of TEAEs [6, 15]: 22 TEAEs | subjects reporting TEAEs [6, 15]: 100% | number of TEAEs [6, 16]: 13 TEAEs | subjects reporting TEAEs [6, 16]: 83% | number of TEAEs [6, 17]: 38 TEAEs | subjects reporting TEAEs [6, 17]: 100% | maximum tolerated dose (MTD) ([6]; Study #1 and Study #2): not determined/not reached | severe TEAEs or SAEs ([6]; Study #1 and Study #2): no severe or very severe TEAEs or SAEs reported | dose-limiting toxicities ([6]; Study #1 and Study #2 (two Phase 1 studies)): no dose-limiting toxicities observed; also recorded: No DLTs were observed | tolerability ([6]; all single and multiple IV and oral doses, Study #1 and Study #2): well tolerated | safety and tolerability ([6]; faster infusions (single dose: 2, 1 and 0.5 hrs; multiple dose: 1 hr)): safe and well tolerated | safety and tolerability ([6]; loading dose 1000 mg IV twice on Day 1 (2-hr infusion), maintenance 600 mg QD): safe and well tolerated | tolerability ([6]; multiple IV doses up to 600 mg once daily for 14 consecutive days): well tolerated by the majority of subjects | tolerability ([6]; single IV doses up to 350 mg over 3 hours and 1000 mg over 0.5-, 1-, 2-, 3-hour infusions): well tolerated | safety and tolerability [7]: safe and well tolerated | compatibility with excipients (total purity profile) [8]: compatible with the tested excipients | PK-PD variable that best correlated with antifungal efficacy (fungal burden, CFUs in the kidney) [9]: AUC/MIC ratio
